Reference: US6340588B1, “Matrices with memories” (Discovery Partners International, Inc., priority 1995, dated 2002)

Biological target: 125I-streptavidin (Streptomyces avidinii, UniProt P22629)
Sequence (P22629 25-183): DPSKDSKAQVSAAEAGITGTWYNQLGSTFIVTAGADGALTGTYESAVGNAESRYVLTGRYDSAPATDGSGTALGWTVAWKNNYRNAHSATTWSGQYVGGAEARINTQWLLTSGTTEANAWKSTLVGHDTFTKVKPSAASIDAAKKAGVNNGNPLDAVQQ

## O=C1NCC(C(=O)O)N1 (stereo not shown) [2-imidazolidone-4-carboxylic acid]
  signal in scintillation proximity assay (binding to 125I-streptavidin): lower signal
